Measurements taken from US12667614B2, “Bacterial microcompartment virus-like particles” (National University of Singapore, priority 2020, dated 2026).

Tests used:
Format in all cases: biochemical
[1] = molecular target: T1, LacZ + shell: LacZ (E. coli beta-galactosidase), N-terminal His6, fused to S2CP(30), SEQ ID NO: 103, encapsulated in Cso-BMC (Cso-PSIIH) shell (Escherichia coli, UniProt P00722); assay: Steady-state kinetics of Cso-BMC encapsulated LacZ (ONPG hydrolysis)
T1 construct: homotetramer
Experimental: (§1) For APEX2, all reagents were made to the appropriate working concentrations using TBS-50/350 pH 8.0. Working solutions of guaiacol and H2O2, both at 10 mM, were prepared on the day of assay. The guaiacol solution was shaken vigorously at 30° C. to ensure complete dissolution before equilibration back to room temperature. The assay concentration for APEX2 was 10 nM, H2O2 1 mM and that for guaiacol ranged from 0.20 to 2.0 mM. Total reaction volume was 200 μL. Reactions were monitored by the absorbance of tetraguaiacol formed at 470 nm using a BioTek Synergy™ HT microplate reader. […] This time point was taken for initial rate, V0, measurement. Kinetic constants were obtained using non-linear least square Michaelis-Menten fitting in GraphPad Prism software.
(§2) For steady-state kinetics of LacZ, all reagents were made to the appropriate working concentrations using TBS-50/350 pH 8.0 supplemented with 1 mM MgCl2. Working solutions of ONPG at 10 mM were prepared from a 50 mM stock solution in DMSO on the day of assay. The assay concentration for LacZ was 10 nM and that for ONPG (ortho-nitrophenyl-β-galactoside) ranged from 0.050 to 1.5 mM. Total reaction volume was 100 μL. Hydrolysis of ONPG was tracked by absorbance measurements at 405 nm.
To probe the capacity of the Cso-BMC for encasing enzymes of considerably different molecular sizes, an evolved pea cytosolic ascorbate peroxidase (APEX2), a 27.0 kDa monomer [Lam et al., Nature Methods 12(1): 51-54 (2015)], and E. coli beta-galactosidase (LacZ), a 466.0 kDa homotetramer, were chosen for encapsulation [Golan, et al., Biochimica et Biophysica Acta (BBA)—Bioenergetics, 1293(2): 238-242; Lam et al., Nature Methods 12(1): 51-54 (2015)]. […] Enzymes were also N-terminally tagged with the hexahistidine (Hiss) tag to facilitate downstream removal of unencapsulated enzymes that might co-purify with shells (Nichols, Kennedy, & Tullman-Ercek, 2019). Cso-PSIIH shells co-expressed with enzymes were constructed and purified. SDS-PAGE analysis and Western blotting confirmed the presence of the target enzymes in shell samples (FIG. 18A-B) and the average copy numbers of enzymes per shell were estimated by Coomassie blue densitometry (Table 8) [Hagen, A., et al., Nature Communications 9: 2881 (2018); Nichols et al., Methods in Enzymology, 617, 155-186 (2019)].
Encapsulation of an enzyme into a protein shell is known to alter the enzyme's catalytic properties in some cases. To probe how encapsulation by the Cso-BMC might affect the catalytic efficiencies of APEX2 and LacZ, we performed steady-state kinetics of both free and encapsulated enzymes and fitted the data to the Michaelis-Menten model to obtain the turnover number (kcat), Michaelis-Menten constant (KM), and catalytic efficiency (kcat/KM) (Table 8, FIG. 19). […]

[2] = molecular target: T2, Free LacZ (E. coli beta-galactosidase), N-terminal His6, fused to S2CP(30); LacZ-S2CP(30), SEQ ID NO: 103 (Escherichia coli, UniProt P00722); assay: Steady-state kinetics of free LacZ (ONPG hydrolysis); details: free LacZ 10 nM; ONPG 0.050 to 1.5 mM; TBS-50/350 pH 8.0, 1 mM MgCl2; mean with standard error, triplicates
T2 construct: homotetramer
Experimental: as §1
as §2, with “nm. […]” for “nm.”

[3] = molecular target: T3, APEX2 + shell: APEX2 (evolved pea cytosolic ascorbate peroxidase), N-terminal His6, fused to S2CP(30), SEQ ID NO: 110, encapsulated in Cso-BMC (Cso-PSIIH) shell (Glycine max, UniProt Q43758, A134P/E112K/K14D/W41F); assay: Steady-state kinetics of Cso-BMC encapsulated APEX2 (guaiacol oxidation); details: decreased to
T3 sequence (Q43758 with tags, fused parts or gaps A134P/E112K/K14D/W41F): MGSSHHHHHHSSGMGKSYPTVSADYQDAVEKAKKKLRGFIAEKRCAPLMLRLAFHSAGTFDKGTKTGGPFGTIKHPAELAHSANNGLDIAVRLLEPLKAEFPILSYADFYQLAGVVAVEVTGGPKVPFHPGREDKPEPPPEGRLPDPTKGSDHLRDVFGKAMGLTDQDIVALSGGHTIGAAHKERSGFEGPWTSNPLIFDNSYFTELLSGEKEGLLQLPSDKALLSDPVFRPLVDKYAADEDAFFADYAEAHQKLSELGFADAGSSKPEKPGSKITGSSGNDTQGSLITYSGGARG
Experimental: as §1
To probe the capacity of the Cso-BMC for encasing enzymes of considerably different molecular sizes, an evolved pea cytosolic ascorbate peroxidase (APEX2), a 27.0 kDa monomer [Lam et al., Nature Methods 12(1): 51-54 (2015)], and E. coli beta-galactosidase (LacZ), a 466.0 kDa homotetramer, were chosen for encapsulation [Golan, et al., Biochimica et Biophysica Acta (BBA)—Bioenergetics, 1293(2): 238-242; Lam et al., Nature Methods 12(1): 51-54 (2015)]. […]

[4] = encapsulated LacZ 10 nM, ONPG 0.050 to 1.5 mM, TBS-50/350 pH 8.0, 1 mM MgCl2, mean with standard error, triplicates

T1 sequence (P00722 other isoform, or with tags, fused parts or gaps): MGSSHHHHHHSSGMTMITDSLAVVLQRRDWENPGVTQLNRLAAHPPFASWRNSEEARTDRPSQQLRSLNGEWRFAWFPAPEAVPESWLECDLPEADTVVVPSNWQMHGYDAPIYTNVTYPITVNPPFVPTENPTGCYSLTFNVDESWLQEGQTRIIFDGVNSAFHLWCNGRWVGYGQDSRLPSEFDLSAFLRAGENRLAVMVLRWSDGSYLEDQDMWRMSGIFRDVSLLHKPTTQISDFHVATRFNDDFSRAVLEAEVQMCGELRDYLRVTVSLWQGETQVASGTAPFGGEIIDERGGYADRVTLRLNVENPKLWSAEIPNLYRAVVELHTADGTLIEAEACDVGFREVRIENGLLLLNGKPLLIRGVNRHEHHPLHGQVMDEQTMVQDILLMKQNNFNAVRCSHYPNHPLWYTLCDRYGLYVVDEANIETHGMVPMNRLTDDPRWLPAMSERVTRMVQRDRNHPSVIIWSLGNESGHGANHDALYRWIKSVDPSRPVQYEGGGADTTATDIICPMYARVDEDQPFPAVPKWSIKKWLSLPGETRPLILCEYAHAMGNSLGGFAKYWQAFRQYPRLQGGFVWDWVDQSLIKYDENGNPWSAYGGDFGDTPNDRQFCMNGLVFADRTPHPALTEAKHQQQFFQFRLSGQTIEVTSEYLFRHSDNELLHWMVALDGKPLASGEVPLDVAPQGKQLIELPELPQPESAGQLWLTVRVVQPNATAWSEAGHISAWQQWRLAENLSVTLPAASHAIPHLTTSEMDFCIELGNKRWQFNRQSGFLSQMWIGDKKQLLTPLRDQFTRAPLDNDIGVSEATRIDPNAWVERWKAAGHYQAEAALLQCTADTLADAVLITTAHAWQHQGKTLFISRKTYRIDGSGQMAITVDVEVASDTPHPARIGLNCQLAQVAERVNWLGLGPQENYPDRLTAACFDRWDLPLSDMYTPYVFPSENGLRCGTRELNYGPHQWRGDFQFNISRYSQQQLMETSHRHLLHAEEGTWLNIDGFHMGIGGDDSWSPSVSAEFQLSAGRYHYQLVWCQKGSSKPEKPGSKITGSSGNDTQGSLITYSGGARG
T2 sequence (P00722 other isoform, or with tags, fused parts or gaps): as above

Compound	kcat/KM of encapsulated LacZ compared with the free enzyme ([1]; comparison in words with free LacZ)	Km [1, 4]	kcat [1, 4]	kcat/KM [1, 4]	kcat [2]	kcat/KM [2]	kcat/KM of encapsulated APEX2 relative to the free enzyme [3]
O=[N+]([O-])c1ccccc1O[C@@H]1O[C@H](CO)[C@H](O)[C@H](O)[C@H]1O [ONPG, ortho-nitrophenyl-β-galactoside]	not significantly different from the free enzyme	140 ± 20 µM	200 ± 14 s⁻¹	14.3 ± 2.27 × 10^5 (s^−1 · M^−1)	258 ± 17 s⁻¹	15.2 ± 2.05 × 10^5 (s^−1 · M^−1)	
COc1ccccc1O [guaiacol]							approximately 30%
